Measurements: patent US20060251714A1, “Pharmaceutical formulations of amyloid inhibiting compounds” (priority 2005, published 2006)

Assays:
[1] = Example 7 Part II: food effect, single oral 200 mg 3-APS in young male subjects, plasma pharmacokinetics; assay type: in vivo, human; conditions: single oral 200 mg (Table 3 formulation); for Cmax: male, po, 200 mg
Experimental: (§1) In the following examples and elsewhere herein, terms are as defined below. The pharmacokinetic parameters were derived by non-compartmental analysis using WinNonlin® (Pharsight Corporation, Mountain View, Calif.) or SAS® for Windows® (SAS Institute Inc., Cary, N.C.).
Following single oral dosing of 200 mg 3-APS (modified-release coated formulation as described in Table 3 above) to young male subjects (aged between 18 and 45 years) under fasted and fed (high fat) conditions, maximum plasma concentrations of 3-APS are attained […] post-dose under fasted and fed conditions, respectively (Table 9A).

[2] = Example 8 Part I: multiple rising oral doses of NC-758 in healthy young male and elderly subjects, plasma pharmacokinetics; assay type: in vivo, human; conditions: fasted; for AUC∞: mean, only subjects with estimable elimination rate constant
Experimental: as §1
The pharmacokinetic profile of multiple rising oral doses of 3-APS free acid (NC-758 of Table 3 above) in healthy male young subjects (18-45 years) and healthy male and female elderly (≧55 years) subjects is assessed. For doses at multiples of 100 mg, multiple 100 mg tables are administered. […] Part I is a randomized, double-blind, placebo-controlled study to assess the pharmacokinetic profile of 2 multiple rising oral doses of NC-758 in healthy young (18-45 years) male subjects. […] In Part I, 3-APS is administered as a single dose on Days 1 and 12 and on Days 2-11, twice daily at 12 hour intervals. Blood samples are collected through 24 h after the first dose on Day 1, before each morning dose on Days 2 to 11, and through 48 h after the final dose on Day 12. For Part II, blood samples are collected through 36 h. Plasma concentrations of 3-APS are determined using a validated LC-MS/MS method.

[3] = Example 9 Part I: single oral doses of NC-758-1 in healthy elderly volunteers, plasma pharmacokinetics; assay type: in vivo, human; conditions: elderly male and female subjects, fasted; for AUC∞: mean, only subjects with estimable elimination rate constant
Text: as §1
Part I—The pharmacokinetic profile and the effect of food on single oral doses of 3-APS free acid (modified-release enteric-coated tablet as described in Table 5 above, hereinafter “NC-758-1”) in healthy male and female elderly (≧55 years) volunteers. For doses at multiples of 50 mg, multiple 50 mg tables are administered. The test is an open label, three-period crossover study to assess the pharmacokinetic profile of 3 single oral doses of NC-758-1 in healthy elderly (≧55 years) male and female subjects. The blood samples are collected during 24 h following dosing. Plasma concentrations of 3-APS are determined using a validated LC-MS/MS method.

CSF Aβ42 = assay: Example 11: additional tests, CSF Aβ42 level and Aβ42/Aβ40 ratio in treated patients; assay type: in vivo, human
Experimental: FIG. 1 Change from Baseline CSF Aβ42 versus 3-APS doses
FIG. 2 Effect of 3-APS on CSF Aβ42/40 Ratio in Mild-to-Moderate AD Patients—Placebo vs. 150 mg BID
FIG. 3 Effect of 3-APS on CSF Aβ42/40 Ratio in Mild-to-Moderate AD Patients 0 and 50 mg 3-APS
FIG. 4 Effect of 3-APS on CSF Aβ42/40 Ratio in Mild-to-Moderate AD Patients 100 and 150 mg 3-APS

[4] = Example 11: additional tests, crossing of the blood/brain barrier; assay type: in vivo, human; conditions: treated AD patients
[5] = Example 13: single 150 mg dose of Modified-Release Coated Tablets in healthy elderly male volunteers, plasma pharmacokinetics; assay type: in vivo; conditions: human, single oral 150 mg (3 × 50 mg Table 5 tablets), elderly male subjects; for AUC(0-inf) / Cmax / AUC(0-t): male, po, 150 mg; for AUC(0-t): read-out: AUC0-Tlast
Experimental: as §1
For the 150 mg dose, three 50 mg tables are administered.

[6] = dog, in vivo
Experimental: (§2) Furthermore, the non-hygroscopic nature of the acid form makes it desirable as active pharmaceutical ingredient. To further protect against any possible gastrointestinal intolerance that could result from the acid form, the tablets are enteric-coated and a modified-release agent is added to control any rapid release of the drug in the stomach and the intestine, respectively.

[7] = Hygroscopicity of the drug substance; assay type: physicochemical
Experimental: as §2

[8] = NC-758 100 mg BID, Day 12 (repeated), young (18-45 years) male subjects, n = 6, mean
[9] = NC-758 200 mg BID, Day 1, elderly (≧55 years) male and female subjects, n = 6, mean
[10] = NC-758 200 mg BID, Day 1, young (18-45 years) male subjects, n = 6, mean
[11] = NC-758 200 mg BID, Day 12 (repeated), elderly (≧55 years) male and female subjects, n = 6, mean
[12] = NC-758 200 mg BID, Day 12 (repeated), young (18-45 years) male subjects, n = 5, mean
[13] = single oral 50 mg NC-758-1 (Table 5 tablet), n = 9, mean
[14] = single oral 100 mg NC-758-1 (Table 5 tablet), n = 9, mean
[15] = single oral 150 mg NC-758-1 (Table 5 tablet), n = 8, mean
[16] = Fasting Conditions, n = 11, mean

NCCCS(=O)(=O)O [3-APS, 3-amino-1-propanesulfonic acid]
AUC(0-inf) ([1]; human, plasma, Fasting Arm, mean, only subjects with estimable elimination rate constant): 2400 ng·h/mL
AUC(0-t) ([1]; human, plasma, Fed Arm (high fat), n = 8, mean, read-out: AUC0-Tlast): 3870 ng·h/mL
Tmax ([1]; human, plasma, Fed Arm (high fat), n = 8, median): 13.5 h
Cmax ([1]; human, plasma, Fasting Arm, n = 8, mean): 594 ng/mL
Cmax ([1]; human, plasma, Fed Arm (high fat), n = 8, mean): 631 ng/mL
AUC0-Tlast ([1]; Fasting Arm, n = 8, mean): 2196 ng·h/mL
AUC∞ ([1]; Fed Arm (high fat), mean, only subjects with estimable elimination rate constant): 4497 ng·h/mL
AUC∞ ([2]; NC-758 100 mg BID, Day 1, young (18-45 years) male subjects): 1017 ng·h/mL
Cmax ([2]; NC-758 100 mg BID, Day 1, young (18-45 years) male subjects, n = 6, mean): 282 ng/mL
AUC0-12h [2, 8]: 1434 ng·h/mL
Cmax [2, 8]: 256 ng/mL
AUC∞ ([2]; NC-758 200 mg BID, Day 1, elderly (≧55 years) male and female subjects): 5503 ng·h/mL
AUC0-12h [2, 9]: 5020 ng·h/mL
Cmax [2, 9]: 897 ng/mL
AUC∞ ([2]; NC-758 200 mg BID, Day 1, young (18-45 years) male subjects): 3206 ng·h/mL
AUC0-12h [2, 10]: 2865 ng·h/mL
Cmax [2, 10]: 517 ng/mL
AUC0-12h [2, 11]: 6287 ng·h/mL
Cmax [2, 11]: 880 ng/mL
AUC0-12h [2, 12]: 4152 ng·h/mL
Cmax [2, 12]: 581 ng/mL
AUC∞ ([3]; single oral 50 mg NC-758-1 (Table 5 tablet)): 1566 ng·h/mL
AUC(0-t) [3, 13]: 1537 ng·h/mL
Cmax [3, 13]: 469 ng/mL
AUC∞ ([3]; single oral 100 mg NC-758-1 (Table 5 tablet)): 2871 ng·h/mL
AUC(0-t) [3, 14]: 3128 ng·h/mL
Cmax [3, 14]: 745 ng/mL
AUC∞ ([3]; single oral 150 mg NC-758-1 (Table 5 tablet)): 4497 ng·h/mL
AUC(0-t) [3, 15]: 5303 ng·h/mL
Cmax [3, 15]: 1029 ng/mL
CSF Aβ42 levels (CSF Aβ42; treated AD patients, FIG. 1): reduced CSF Aβ42 levels
ratio of Aβ42/Aβ40 (CSF) (CSF Aβ42; treated mild-to-moderate AD patients, FIGS. 2, 3 and 4): reduced the ratio of Aβ42/Aβ40
crossing of the blood/brain barrier [4]: crossed the blood/brain barrier
Tmax ([5]; Fed Conditions, n = 10, median): 5.5 h
AUC(0-inf) [5, 16]: 3280 ng·h/mL
Cmax [5, 16]: 772 ng/mL
AUC(0-t) [5, 16]: 3210 ng·h/mL
AUC(0-inf) ([5]; Fed Conditions, n = 10, mean): 5310 ng·h/mL
Cmax ([5]; Fed Conditions, n = 10, mean): 980 ng/mL
AUC(0-t) ([5]; Fed Conditions, n = 10, mean): 5160 ng·h/mL
tolerability [6]: better tolerated than the sodium salt form
hygroscopic nature [7]: non-hygroscopic
